Structures are written as SMILES.

This passage reports RP-LC retention time results from the METLIN SMRT retention time set (Domingo-Almenara et al. 2019).

The data set in a line: gradient 5% acetonitrile 3 min, to 50% in 2 min, to 85% in 15 min, held 3 min, 100 µL/min. The following applies: column: Zorbax Extend-C18 2.1 x 50 mm; eluents: water / acetonitrile, 0.1% formic acid. The method in brief: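 A Zorbax Extend-C18 column (2.1 × 50 mm, 1.8 μm) run at 100 μL/min with water and acetonitrile, both containing 0.1% formic acid, separated mixtures of ~100 pure standards. The HPLC was coupled to a quadrupole time-of-flight mass spectrometer operated in positive and negative ionization mode, with dead and dwell volumes of 40 μL and 900 μL. Each retention time was taken from a computationally picked adduct peak that was then manually inspected.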
With `Cc1ccc(NC(=O)Cn2nc3c(Oc4ccc(Cl)cc4)nccn3c2=O)cc1`, the RP-LC retention time worked out at 864 s.

In turn, `CCCN1C(=O)c2cccnc2Sc2cc(C(=O)N3CCCCC3)ccc21` returned an RP-LC retention time of 772 s.

In turn, `COc1ccc(OC)c(NC(=O)CN2C(=O)NC(c3ccc(Cl)cc3)C3=C2COC3=O)c1` (stereo not given) showed an RP-LC retention time of 790 s.

Turning to `COc1ccc2c(c1)C1(CCN(C(=O)c3ccc(F)cc3)C1)C(=O)N2C` (stereo not given), the RP-LC retention time was 759 s.

In the case of `CCc1ccccc1NC(=O)C1CCC(=O)N1S(=O)(=O)c1ccc(C)c(C)c1` (stereo not given), the RP-LC retention time came out at 978 s.

In turn, `CCc1nc(N)n(CC(=O)Nc2cc(C)ccc2OC)c(=O)c1C` displayed an RP-LC retention time of 640 s.

`Cc1cc(=O)c2cc(C(=O)Nc3nc4ccccc4s3)ccc2[nH]1` registered an RP-LC retention time of 702 s.

For the compound `CC1CCN(c2nc(=O)n(CC(=O)Nc3ccc(C(C)C)cc3)c3ccccc23)CC1`, the RP-LC retention time stood at 981 s.

In turn, `Cc1noc(C)c1Cc1ccc(C(=O)NCC23CCC=C2N(C)C(=O)CC3)o1` (stereo not given) showed an RP-LC retention time of 727 s.

`c1ccc(-c2noc(NCc3ccc4c(c3)OCO4)n2)cc1`: the RP-LC retention time was determined as 974 s.

Take `O=C(CCCc1c[nH]c2ccccc12)NCCc1c[nH]c2ccccc12`: the RP-LC retention time was 830 s.

Take `COc1cccc(NC(=O)C2CCN(S(=O)(=O)c3cc(-c4noc(C)n4)cs3)CC2)c1`: the RP-LC retention time is 883 s.

As to `CC(C)n1c(CCNC(=O)c2ccc(Cl)cc2)nc2cccnc21`, the RP-LC retention time came to 704 s.

The compound `O=S1(=O)C[C@H](N2CCN(c3ccccn3)CC2)[C@@H](S(=O)(=O)c2ccc(Cl)cc2)C1` displayed an RP-LC retention time of 643 s.

As to `Cc1ccc(CNC(=O)Cc2nnc(-c3cnccn3)o2)cc1C`, the RP-LC retention time is 720 s.

On to `Cn1ncc2c(Nc3ccc([N+](=O)[O-])cc3)nc(Cl)nc21`, for which the RP-LC retention time stood at 963 s.

`CCc1nc2c(c(=O)n1CC(=O)Nc1ccc(C)cc1)CN(Cc1ccccc1)CC2` showed an RP-LC retention time of 672 s.

`COc1ccc(CNC(=O)C2(C)Cc3ccccc3C(=O)N2Cc2ccco2)cc1` (stereo not given): the RP-LC retention time is 860 s.

In turn, `CCN(CC)S(=O)(=O)c1ccc2nc(N3CCN(C4CCCCC4)CC3)cnc2c1` yielded an RP-LC retention time of 674 s.

The compound `CN(CCc1noc(-c2ccc(C(=O)N3CCCC3)cc2)n1)C(=O)c1ccccc1Br` gave an RP-LC retention time of 736 s.

As for `Cc1cc(N2CCC(NC(=O)NCc3cccc(F)c3)C2=O)ccc1F` (stereo not given), the RP-LC retention time turned out to be 903 s.

For the compound `CC(=O)N1CCCN(C2=NS(=O)(=O)C(c3ccc(C)c(C)c3)=C2C)CC1`, the RP-LC retention time was 630 s.

`CN(C)CCNC(=O)C1CCN(c2nn3cc(-c4ccc(F)cc4)nc3s2)CC1` gave an RP-LC retention time of 636 s.

`Cc1nc2n(c(=O)c1C)CCN2CC(=O)NCc1ccccc1Cl` had an RP-LC retention time of 652 s.

With `Cc1nnc2ccc(NC3CC3)nn12`, the RP-LC retention time was 628 s.

Compound `Cc1noc(COC2CCN(C(=O)Cc3c[nH]c4ccccc34)CC2)n1` returned an RP-LC retention time of 724 s.

`O=C(NCCCN1CCCC1)C1CCN(c2nccnc2Sc2ccccc2)CC1` had an RP-LC retention time of 650 s.

Turning to `Cc1[nH]c(=O)[nH]c(=O)c1CCc1nnc(SCC(=O)NCc2ccco2)o1`, the RP-LC retention time was 566 s.

`CCOc1cc(=O)n2c(c1C(=O)NCCOC)CCCCC2` gave an RP-LC retention time of 600 s.

Compound `CC(C)Cc1cc(-c2nnc3sc(-c4ccccc4F)nn23)n[nH]1` gave an RP-LC retention time of 889 s.

Compound `O=C(NCC1(CO)CC1)NC1CCCCC1` displayed an RP-LC retention time of 621 s.

Regarding `Cc1cc(C)cc(NC(=O)CN2C(=O)C3CCCCN3c3ccc(S(=O)(=O)N(C)C)cc32)c1` (stereo not given), the RP-LC retention time was found to be 994 s.

`Cc1nc(-c2ccccc2Cl)sc1C(=O)NCCc1c[nH]c2ccccc12`: the RP-LC retention time was determined as 1020 s.

In the case of `Cc1cnc(C2CC2)n1CCNS(=O)(=O)c1cc(F)cc(F)c1`, the RP-LC retention time turned out to be 615 s.

Regarding `O=C(NCCS(=O)(=O)N1CCN(c2cccc(Cl)c2)CC1)c1cc2ccccc2o1`, the RP-LC retention time came out at 941 s.

The compound `O=C(CN1C(=O)c2ccccc2C1=O)Nc1nnc(C2=COCCO2)o1` displayed an RP-LC retention time of 609 s.

On to `CC(C)Cn1c(=O)c(N2CCN(S(=O)(=O)c3cccc(F)c3)CC2)nc2ccncc21`, for which the RP-LC retention time was 636 s.

On to `CCOC(=O)c1ccc(Nc2c(-c3ccc(C(=O)OC)cc3)nc3cnccn23)cc1`, for which the RP-LC retention time was determined as 856 s.

In the case of `Cc1nc2cc3c(cc2n1CC(=O)Nc1cccc(C(F)(F)F)c1)OCCO3`, the RP-LC retention time was found to be 712 s.

`O=C(Cn1nc2c(Oc3ccc(Cl)cc3)nccn2c1=O)NC1CCCCC1` displayed an RP-LC retention time of 881 s.

On to `Nc1cc(C2CCN(C(=O)Nc3cccc(Br)c3)CC2)no1`, for which the RP-LC retention time was determined as 744 s.

Take `COc1cccc(C2Cn3nnc(-c4nc(-c5ccc(OC)c(F)c5)no4)c3CO2)c1` (stereo not given): the RP-LC retention time was 1140 s.

The compound `O=C(c1ccccc1)N1CCN(c2nc(CN3CCOCC3)cs2)CC1` displayed an RP-LC retention time of 852 s.

As for `CCCn1cnc2ccc(-c3noc(-c4cccc(F)c4)n3)cc21`, the RP-LC retention time worked out at 873 s.

Regarding `CCCn1cc(-c2nc(-c3ccncc3)no2)c(=O)c2cc(F)ccc21`, the RP-LC retention time was determined as 728 s.

Compound `COc1ccc(OC)c(NC(=O)Nc2c(-c3ccccc3)nc3ccccn23)c1` registered an RP-LC retention time of 668 s.

`CC1CCCC(C)N1C(=O)CSc1nnc(-c2ccc3c(c2)OCCCO3)n1C` (stereo not given) yielded an RP-LC retention time of 780 s.

Regarding `Cc1ccc(N2CCC(NC(=O)NCCc3ccccc3)C2=O)cc1C` (stereo not given), the RP-LC retention time was 790 s.

For `Cc1ccc(CNC(=O)C2CCN(c3nc(C4CCC4)nc4csc(C)c34)CC2)cc1C`, the RP-LC retention time is 808 s.

`CCOC(=O)c1ccc(NC(=O)N2CCCC2c2c(C)noc2C)cc1` (stereo not given): the RP-LC retention time was 801 s.

The compound `COc1ccc(NC(=O)N2CCCn3nc(-c4cccc(Cl)c4)cc3C2)cc1F` displayed an RP-LC retention time of 945 s.

Take `COc1ccc(-c2nc3ncc4c(=O)n(CCc5ccc(OC)c(OC)c5)ccc4n3n2)cc1`: the RP-LC retention time was found to be 854 s.

In turn, `COc1ccc(C(=O)N2CCC3(C2)C(=O)N(C)c2ccccc23)c(OC)c1` (stereo not given) yielded an RP-LC retention time of 759 s.

In the case of `O=C(c1ccsc1)N1[C@H]2CC[C@@H]1c1cnc(-c3ccccc3)nc1C2`, the RP-LC retention time is 886 s.

Turning to `Cc1ccc(C)c(NC(=O)NCCc2cn(C)c3ncccc23)c1`, the RP-LC retention time was 704 s.

On to `COc1ccc(-c2csc(NC(=O)CS(=O)(=O)c3ccc(C)cc3)n2)c(OC)c1`, for which the RP-LC retention time is 1010 s.

For the compound `CC(=O)Nc1ccc(C(=O)N(C2CC2)C2(C(=O)NCc3ccccc3)CCN(C(C)=O)CC2)cc1`, the RP-LC retention time was determined as 692 s.

Compound `Cc1cc(C(=O)N2c3ccccc3CC2c2nnc(C(C)C)o2)nn1C` (stereo not given) registered an RP-LC retention time of 829 s.

With `O=C(NC1CCN(c2cc(-c3ccc(Cl)cc3)[nH]n2)C1)c1cccc(F)c1` (stereo not given), the RP-LC retention time came out at 721 s.

In turn, `CN1CCC(NC(=O)C2CCN(c3nc4ccc(-c5ccsc5)nc4s3)CC2)CC1` displayed an RP-LC retention time of 640 s.

Compound `CCc1ccccc1NC(=O)NCC1CCOCC1` registered an RP-LC retention time of 705 s.

Compound `CCOC(=O)c1noc2ncnc(N3CCc4ccccc4C3)c12` showed an RP-LC retention time of 1010 s.

In the case of `CCCNC(=O)CSc1ccc(-n2nc3c(c2C)CCC3)nn1`, the RP-LC retention time was 865 s.

In the case of `CC(C)(C)c1cc(N2CCN(c3ccccn3)CC2)n2ncc(-c3ccc(Cl)cc3)c2n1`, the RP-LC retention time is 1220 s.

`CCC1CCCCN1C(=O)CN1C(=O)CCCc2cc(S(=O)(=O)N3CCC(C)CC3)ccc21` (stereo not given) had an RP-LC retention time of 1040 s.

Turning to `CCCN1CCO[C@@H]2c3cc(O)ccc3OC[C@H]21`, the RP-LC retention time is 645 s.

Compound `O=C(Cc1ccc(F)cc1)Nc1nnc(C2CC(=O)N(c3ccccc3)C2)o1` (stereo not given) gave an RP-LC retention time of 716 s.

With `O=C(NCCc1csc2nc(-c3cccs3)nn12)c1c(F)cccc1Cl`, the RP-LC retention time came out at 792 s.

`Cc1ccoc1C(=O)N1CC(F)(F)C[C@H]1c1nc(C2CC2)no1` displayed an RP-LC retention time of 723 s.

In the case of `COc1ccccc1N1CCN(CCN(C(=O)C2CCCCC2)c2ccccn2)CC1`, the RP-LC retention time was found to be 816 s.

Turning to `Cc1ccc(NS(=O)(=O)c2cn(CC(C)C)c3ncccc23)cc1C`, the RP-LC retention time is 1040 s.

For the compound `CC(=O)N1CCCc2cc(S(=O)(=O)CCC(=O)Nc3ccc(Br)cc3F)ccc21`, the RP-LC retention time amounted to 824 s.

In turn, `O=C(Nc1cnc(-c2ccccc2)nc1)C1CCC1` had an RP-LC retention time of 856 s.

In the case of `CCn1cc(C)c(C(=O)O)c1CC(=O)NCc1cccs1`, the RP-LC retention time came to 733 s.

For `O=C(Nc1ccc2ccccc2c1)c1ccc(Cl)cc1Cl`, the RP-LC retention time was determined as 1130 s.

The compound `O=C(CN1CCCc2nc(C3CC3)ncc2C1=O)NCCCN1CCCC1=O` returned an RP-LC retention time of 594 s.

As for `Cn1ncc2c3ccccc3n(CC(=O)NCCc3cnc[nH]3)c2c1=O`, the RP-LC retention time came to 583 s.

Regarding `CCN1C(=O)c2cccnc2Sc2cc(NC(=O)c3ccccc3)ccc21`, the RP-LC retention time worked out at 812 s.

On to `CCn1c(C(=O)NCc2ccc3c(c2)OCO3)cc2c(-c3cccs3)nn(-c3ccccc3)c21`, for which the RP-LC retention time stood at 1120 s.

`CC(=O)Nc1ccc(-c2noc(C3CCCN(C(=O)CCc4c[nH]c5ccccc45)C3)n2)cc1` (stereo not given) registered an RP-LC retention time of 798 s.
